Laboratory results as given in the NIST ThermoML archive (doi:10.1016/j.jct.2011.11.019).

Experiment: xn = mol fraction of the nth substance listed
Settings: 298.15 K, 101 kPa, Liquid, Vibrating tube method

OC(C(F)(F)F)C(F)(F)F [1,1,1,3,3,3-hexafluoro-2-propanol] + O
Settings	mass density [kg/m3]
x1 = 0.1024	1261.96
x1 = 0.205	1387.36
x1 = 0.3016	1455.74
x1 = 0.4067	1501.77
x1 = 0.4929	1527.75
x1 = 0.5943	1550.19
x1 = 0.6411	1558.59
x1 = 0.8065	1585.8
x1 = 0.9005	1593.04
